Experimental data taken from ChEMBL document CHEMBL5465560, “Selectivity Literature for EUbOPEN Chemogenomic Library” (2024).
Blank lines part the entries; values can stand above or below the compound they belong to.

Key:
[1] = molecular target: Ribosomal protein S6 kinase alpha-2 (Homo sapiens) (UniProt Q15349); test: Selectivity interaction (KinomeScan (DiscoverX)) EUB0000607a RPS6KA2; settings: at 10 µM
[2] = molecular target: T1, Tyrosine-protein kinase receptor TYRO3 (Homo sapiens) (UniProt Q06418); test: Selectivity interaction (SelectScreen profiling (Invitrogen)) EUB0000607a TYRO3; settings: at 2 µM
T1 sequence (whole entry): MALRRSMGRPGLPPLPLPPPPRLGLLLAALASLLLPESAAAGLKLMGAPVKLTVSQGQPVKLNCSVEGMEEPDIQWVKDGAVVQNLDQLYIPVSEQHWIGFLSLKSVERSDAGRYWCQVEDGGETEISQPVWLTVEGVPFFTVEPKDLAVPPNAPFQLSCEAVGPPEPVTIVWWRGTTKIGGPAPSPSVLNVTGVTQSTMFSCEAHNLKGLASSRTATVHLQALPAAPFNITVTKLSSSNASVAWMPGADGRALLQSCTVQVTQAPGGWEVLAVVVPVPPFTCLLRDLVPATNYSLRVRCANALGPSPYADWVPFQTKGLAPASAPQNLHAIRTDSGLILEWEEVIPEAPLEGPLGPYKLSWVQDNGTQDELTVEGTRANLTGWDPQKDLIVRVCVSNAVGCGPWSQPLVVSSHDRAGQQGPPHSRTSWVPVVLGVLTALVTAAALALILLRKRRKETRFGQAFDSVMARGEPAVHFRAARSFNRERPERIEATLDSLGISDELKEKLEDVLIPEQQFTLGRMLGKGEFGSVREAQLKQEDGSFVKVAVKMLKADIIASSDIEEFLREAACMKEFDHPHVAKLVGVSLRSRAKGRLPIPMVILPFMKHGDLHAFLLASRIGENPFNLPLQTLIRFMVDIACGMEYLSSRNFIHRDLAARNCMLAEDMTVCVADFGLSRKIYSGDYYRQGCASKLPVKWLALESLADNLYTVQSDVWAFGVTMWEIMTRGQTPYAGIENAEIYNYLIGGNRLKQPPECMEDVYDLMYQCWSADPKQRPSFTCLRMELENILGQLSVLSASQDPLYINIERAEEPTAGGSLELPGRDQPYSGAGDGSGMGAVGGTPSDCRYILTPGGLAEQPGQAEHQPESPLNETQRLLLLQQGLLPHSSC

[3] = molecular target: T2, Phosphatidylinositol 5-phosphate 4-kinase type-2 gamma (Homo sapiens) (UniProt Q8TBX8); test: Selectivity interaction (ActivX KiNativ screen (kinase selectivity in THP-1 cell lysates)) EUB0000639a PIP4K2C; assay type: subcellular; settings: lysate, at 1 µM
T2 sequence (whole entry): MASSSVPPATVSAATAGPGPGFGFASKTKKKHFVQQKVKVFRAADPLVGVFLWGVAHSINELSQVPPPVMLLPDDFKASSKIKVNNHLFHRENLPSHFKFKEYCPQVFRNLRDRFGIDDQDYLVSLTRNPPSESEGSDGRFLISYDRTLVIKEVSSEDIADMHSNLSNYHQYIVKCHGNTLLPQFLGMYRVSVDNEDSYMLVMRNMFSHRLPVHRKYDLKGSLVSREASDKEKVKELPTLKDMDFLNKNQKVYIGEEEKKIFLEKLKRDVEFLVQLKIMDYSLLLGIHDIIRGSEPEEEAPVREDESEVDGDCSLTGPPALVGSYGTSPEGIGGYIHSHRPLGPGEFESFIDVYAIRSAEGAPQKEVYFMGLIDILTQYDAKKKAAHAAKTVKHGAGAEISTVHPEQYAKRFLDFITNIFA

[4] = molecular target: T3, Ankyrin repeat and protein kinase domain-containing protein 1 (Homo sapiens) (UniProt Q8NFD2); test: Selectivity interaction (KinomeScan (DiscoverX)) EUB0000618a ANKK1; settings: at 10 µM
T3 sequence (whole entry): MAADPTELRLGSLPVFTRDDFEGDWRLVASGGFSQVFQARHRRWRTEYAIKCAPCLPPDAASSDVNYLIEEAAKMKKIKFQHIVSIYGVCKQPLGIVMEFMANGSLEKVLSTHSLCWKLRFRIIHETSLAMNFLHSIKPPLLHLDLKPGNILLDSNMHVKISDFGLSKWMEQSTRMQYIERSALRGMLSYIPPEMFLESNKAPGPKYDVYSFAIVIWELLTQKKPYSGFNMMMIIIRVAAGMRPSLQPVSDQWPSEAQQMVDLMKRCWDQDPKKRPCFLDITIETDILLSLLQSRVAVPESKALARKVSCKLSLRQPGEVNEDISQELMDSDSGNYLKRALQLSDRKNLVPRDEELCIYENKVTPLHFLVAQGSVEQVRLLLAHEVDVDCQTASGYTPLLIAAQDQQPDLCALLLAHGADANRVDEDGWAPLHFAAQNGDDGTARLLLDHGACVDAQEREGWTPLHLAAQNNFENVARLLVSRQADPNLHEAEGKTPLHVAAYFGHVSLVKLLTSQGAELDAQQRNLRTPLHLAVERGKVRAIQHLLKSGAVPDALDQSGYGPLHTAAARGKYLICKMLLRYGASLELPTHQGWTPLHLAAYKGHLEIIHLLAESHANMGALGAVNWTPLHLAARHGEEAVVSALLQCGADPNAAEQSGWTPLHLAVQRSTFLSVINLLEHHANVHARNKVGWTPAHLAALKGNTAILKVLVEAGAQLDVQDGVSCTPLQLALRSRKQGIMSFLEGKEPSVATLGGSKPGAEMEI

[5] = molecular target: T4, SNF-related serine/threonine-protein kinase (Homo sapiens) (UniProt Q9NRH2); test: Selectivity interaction (KinomeScan (DiscoverX)) EUB0000618a SNRK; settings: at 10 µM
T4 sequence (whole entry): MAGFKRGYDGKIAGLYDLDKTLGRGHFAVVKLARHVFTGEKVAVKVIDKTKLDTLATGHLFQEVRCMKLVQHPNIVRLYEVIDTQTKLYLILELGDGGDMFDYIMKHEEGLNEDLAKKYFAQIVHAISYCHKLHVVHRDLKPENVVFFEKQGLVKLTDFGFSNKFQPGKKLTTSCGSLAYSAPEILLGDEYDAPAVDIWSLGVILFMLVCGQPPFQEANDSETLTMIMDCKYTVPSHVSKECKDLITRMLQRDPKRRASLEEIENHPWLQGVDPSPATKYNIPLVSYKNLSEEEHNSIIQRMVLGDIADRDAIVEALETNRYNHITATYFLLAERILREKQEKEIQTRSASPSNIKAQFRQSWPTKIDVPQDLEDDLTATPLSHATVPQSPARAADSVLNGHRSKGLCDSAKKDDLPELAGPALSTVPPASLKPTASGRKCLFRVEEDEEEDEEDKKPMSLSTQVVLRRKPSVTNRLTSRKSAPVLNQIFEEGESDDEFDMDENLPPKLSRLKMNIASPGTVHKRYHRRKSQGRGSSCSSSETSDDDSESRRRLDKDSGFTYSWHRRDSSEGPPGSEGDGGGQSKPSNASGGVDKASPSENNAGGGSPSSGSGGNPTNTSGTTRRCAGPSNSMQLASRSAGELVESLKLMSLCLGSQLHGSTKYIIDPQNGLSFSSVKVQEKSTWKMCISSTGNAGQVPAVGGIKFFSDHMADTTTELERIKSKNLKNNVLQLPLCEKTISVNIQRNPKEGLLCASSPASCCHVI

Sequence of Ribosomal protein S6 kinase alpha-2 (Homo sapiens) (Q15349 whole entry): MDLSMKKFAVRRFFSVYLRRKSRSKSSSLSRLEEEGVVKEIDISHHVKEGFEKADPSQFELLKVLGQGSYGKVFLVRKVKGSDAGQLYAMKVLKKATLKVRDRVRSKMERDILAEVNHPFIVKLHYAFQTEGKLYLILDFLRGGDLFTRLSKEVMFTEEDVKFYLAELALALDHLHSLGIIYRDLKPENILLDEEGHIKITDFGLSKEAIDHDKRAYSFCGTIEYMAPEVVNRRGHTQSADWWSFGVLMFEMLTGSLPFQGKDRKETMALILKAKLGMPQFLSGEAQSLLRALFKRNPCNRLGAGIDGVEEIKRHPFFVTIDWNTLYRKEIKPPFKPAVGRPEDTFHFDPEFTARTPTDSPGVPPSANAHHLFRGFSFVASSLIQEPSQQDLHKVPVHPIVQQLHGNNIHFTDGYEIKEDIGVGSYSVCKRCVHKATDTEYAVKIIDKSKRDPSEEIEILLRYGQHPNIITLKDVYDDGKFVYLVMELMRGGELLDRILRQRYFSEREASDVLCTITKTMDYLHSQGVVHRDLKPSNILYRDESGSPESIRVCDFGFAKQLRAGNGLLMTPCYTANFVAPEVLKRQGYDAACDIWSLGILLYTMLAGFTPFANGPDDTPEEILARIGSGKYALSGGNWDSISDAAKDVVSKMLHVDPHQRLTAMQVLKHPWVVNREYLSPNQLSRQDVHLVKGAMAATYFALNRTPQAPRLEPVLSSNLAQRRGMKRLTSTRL

SMILES: CNC(=O)Nc1ccc(-c2nc(N3CC4CCC(C3)O4)c3cnn(C4CCC5(CC4)OCCO5)c3n2)cc1
% of control [1]: 93%
% of inhibition [2]: 9%

% of inhibition [3]: 76.4%
SMILES: CC[C@@H]1[C@H](F)C(=O)N[C@@H]1COc1nccc2cc(C(N)=O)c(OC)cc12 [ZIMLOVISERTIB]

SMILES: O[C@H]1CC[C@H](Nc2ncc3nc(Nc4c(F)cc(F)cc4F)n([C@H]4CCOC4)c3n2)CC1
% of control [4]: 100%
% of control [5]: 100%
